In patent US6818780B2, “P-hydroxyphenyl propionic acid derivatives as antiproliferative agents” (Consejo Superior de Investigaciones Cientificas, priority 2000, dated 2004):

Columns and labels:
[1] = tested on: human peripheral blood mononuclear cells (CMSP); test: Test on lymphocyte proliferation: human peripheral blood mononuclear cells (3H-thymidine incorporation), with or without rhIL-2; format: cell-based; conditions: for Proliferation of human peripheral blood mononuclear cells in the presence of rhIL-2, Con A 2 μg/ml (cpm ± DS) / Proliferation of human peripheral blood mononuclear cells in the presence of rhIL-2, Medium (cpm ± DS) / Proliferation of human peripheral blood mononuclear cells in the presence of rhIL-2, PHA 10 μg/ml (cpm ± DS) / Proliferation of human peripheral blood mononuclear cells in the presence of rhIL-2, aCD3 5 μg/ml (cpm ± DS) / Proliferation of human peripheral blood mononuclear cells in the presence of rhIL-2, aCD3 + Con A (cpm ± DS) / Proliferation of human peripheral blood mononuclear cells in the presence of rhIL-2, aCD3 + PHA (cpm ± DS): rhIL-2 100 UI/ml
Excerpt: Tests on Human Peripheral Blood Mononuclear Cells Material and Methods:
In order to study more deeply the effects of lactone on cell proliferation, we checked whether the effects described in the above section on cells of murine origin were specific to the cell type and the species or whether, on the other hand, these effects were xeno-independent. For this, we purified human peripheral blood mononuclear cells from healthy controls and we proceeded to study the possible effects of inhibition on the proliferative activity of peripheral blood mononuclear cells (CMSP) from humans, induced by different mitogenic agents acting alone and/or in costimulation with other mitogens and in the presence or absence of recombinant human interleukin 2 (rhIL-2).
Mitogens: Phytohaemaglutinin M (PHA) (Difco Lab., Detroit, Mich., USA), Concanavalin A (Con A, 2 μg/ml, Sigma Chemical Co., Mich., USA), Immobilised anti-CD3 (OKT3, 5 μg/ml, Ortho-mune, Orthodiagnostic System) and rhIL-2 (100 IU/ml, Hoffman-La Roche, N.J., USA).
All the reagents included in these tests were diluted in RPMI 1640 culture medium (Whitaker Bioproducts, Walkersville, USA) supplemented with 10% of decomplemented foetal calf serum (Biochrom K G, Berlin), L-glutamin (2 mM, Biochrom K G), Hepes (25 mM, Biochrom K G) and antibiotic (1% penicillin streptomycin, Difco Lab, Detroit, Mich., USA).
Also, all the mitogens were optimised in a dose response way in order to obtaining the maximum proliferative response after 5 days of culture.
Venous blood: The CMSP were obtained from venous blood extracted by antecubital venous puncture. 50 ml of blood were extracted to which were added 50 U of calcic heparin and the mixture was diluted 1/1 (vol/vol) with PSS.
Human mononucleated cells: In order to isolate the CMSP they were proceeded to be separated from the rest of the blood components by means of the formation of a density gradient on Ficoll. The cells thus obtained are resuspended in PSS and centrifuged at 400×g for 10 minutes (washing process) and then resuspended in PSS. This operation is repeated three times. In the last of them, PSS is replaced with complete medium.
(§1) General culture conditions: All cell cultures were developed under conditions of sterility in a vertical laminar flow chamber, using single-use sterile materials or materials sterilised in an autoclave or with ethylene oxide. The cultures were conserved in a stove kept at a temperature of 37° C., in an atmosphere with 5% CO2 and relative humidity of 95%. In the various experiments performed, the purified CMSP cell preparations were incubated in sterile dishes with 96 wells at concentrations of 5×10^4 cells/well (200 μl) in the presence of different concentrations of different mitogens for 5 days.
(§2) The method used for quantifying the cell proliferation was analysis of the incorporation of ^3H-thymidine (^3H-T) into DNA synthesised de novo, detecting the emission of β radiation from the dry extracts of cell cultures to which the tritiated base had been added before its finalisation and collection. The synthesis of DNA was done in triplicate on sterile dishes with 96 flat-bottom wells.
(§3) From 20 to 24 hour prior to terminating the cell culture, 1 μCi of ^3H-T was added to each well containing medium; the cultures were gathered by suction through a glass filter, using a Skatron culture collector for this.
(§4) The synthesis of DNA has been expressed in counts per minute (cpm). Each test was conducted in triplicate, with those data having a variability greater than 10% compared to the mean of the triplicate being rejected, since they could indicate a technical error or contamination in the culture. The cultures were carried out at a constant cell volume per well, as well as at a constant volume of 200 μl.
Negative Control: Cells in the Presence of Complete Culture Medium
Positive Control: Stimulation of Cells without the Presence of Lactone […]

[2] = tested on: human peripheral blood mononuclear cells; test: Stability studies: antiproliferative activity of lactone kept one year in DMSO, human peripheral blood mononuclear cells; format: cell-based; conditions: for Proliferation of human peripheral blood mononuclear cells, Medium (cpm ± DS) / Proliferation of human peripheral blood mononuclear cells, PHA 10 μg/ml (cpm ± DS) / Proliferation of human peripheral blood mononuclear cells, PHA + rhIL-2 (cpm ± DS): sample kept one year at room temperature at 40.0 mg/ml in DMSO
Experimental: as §1, §2, §3, §4
The sample remains for one year at room temperature and at a concentration of 40.0 mg/ml in DMSO.

murine splenocytes = test: Test of lymphocyte proliferation: proliferation of murine splenocytes (tritiated thymidine incorporation); format: cell-based, Bal b/c mice; conditions: range 100-0.75 μg/ml
[3] = Lactone 10 μg/ml, no rhIL-2, 5 days
[4] = Lactone 100 μg/ml, no rhIL-2, 5 days

## C=C1C(=O)OC(CCc2ccc(OC)cc2)C1C (stereo not shown) [lactone]
[1]; [3]
  Proliferation of human peripheral blood mononuclear cells, aCD3 + Con A (cpm ± DS): 11 ± 1 cpm
  Proliferation of human peripheral blood mononuclear cells, aCD3 + PHA (cpm ± DS): 23 ± 7 cpm
[1]; Lactone 10 μg/ml, 5 days
  Proliferation of human peripheral blood mononuclear cells in the presence of rhIL-2, Con A 2 μg/ml (cpm ± DS): 611 ± 75 cpm
  Proliferation of human peripheral blood mononuclear cells in the presence of rhIL-2, Medium (cpm ± DS): 866 ± 66 cpm
  Proliferation of human peripheral blood mononuclear cells in the presence of rhIL-2, PHA 10 μg/ml (cpm ± DS): 579 ± 1033 cpm
  Proliferation of human peripheral blood mononuclear cells in the presence of rhIL-2, aCD3 5 μg/ml (cpm ± DS): 489 ± 25 cpm
  Proliferation of human peripheral blood mononuclear cells in the presence of rhIL-2, aCD3 + Con A (cpm ± DS): 164 ± 65 cpm
  Proliferation of human peripheral blood mononuclear cells in the presence of rhIL-2, aCD3 + PHA (cpm ± DS): 304 ± 35 cpm
[1]; [4]
  Proliferation of human peripheral blood mononuclear cells, Con A 2 μg/ml (cpm ± DS): 204 ± 43 cpm
  Proliferation of human peripheral blood mononuclear cells, Medium (cpm ± DS): 104 ± 26 cpm
  Proliferation of human peripheral blood mononuclear cells, PHA 10 μg/ml (cpm ± DS): 1086 ± 308 cpm
  Proliferation of human peripheral blood mononuclear cells, aCD3 5 μg/ml (cpm ± DS): 39 ± 10 cpm
  Proliferation of human peripheral blood mononuclear cells, aCD3 + Con A (cpm ± DS): 8 ± 6 cpm
  Proliferation of human peripheral blood mononuclear cells, aCD3 + PHA (cpm ± DS): 13 ± 4 cpm
[1]; Lactone 100 μg/ml, 5 days
  Proliferation of human peripheral blood mononuclear cells in the presence of rhIL-2, Con A 2 μg/ml (cpm ± DS): 532 ± 109 cpm
  Proliferation of human peripheral blood mononuclear cells in the presence of rhIL-2, Medium (cpm ± DS): 918 ± 1 cpm
  Proliferation of human peripheral blood mononuclear cells in the presence of rhIL-2, PHA 10 μg/ml (cpm ± DS): 892 ± 199 cpm
  Proliferation of human peripheral blood mononuclear cells in the presence of rhIL-2, aCD3 5 μg/ml (cpm ± DS): 400 ± 44 cpm
  Proliferation of human peripheral blood mononuclear cells in the presence of rhIL-2, aCD3 + Con A (cpm ± DS): 237 ± 109 cpm
  Proliferation of human peripheral blood mononuclear cells in the presence of rhIL-2, aCD3 + PHA (cpm ± DS): 286 ± 10 cpm
[1]; induced by Con A+rhIL-2
  Lactone concentration at which the blastogen response induced in CMSP falls by 50%: 0.27 µg/mL
[1]; induced by Concavalin A (Con A)
  Lactone concentration at which the blastogen response induced in CMSP falls by 50%: 0.5 µg/mL
[1]; induced by PHA+rhIL-2
  Lactone concentration at which the blastogen response induced in CMSP falls by 50%: 0.29 µg/mL
[1]; induced by aCD3+Con A
  Lactone concentration at which the blastogen response induced in CMSP falls by 50%: 0.21 µg/mL
[1]; induced by aCD3+PHA
  Lactone concentration at which the blastogen response induced in CMSP falls by 50%: 0.24 µg/mL
[1]; induced by immobilised aCD3+Con A+rhIL-2
  Lactone concentration at which the blastogen response induced in CMSP falls by 50%: 0.25 µg/mL
[1]; induced by immobilised aCD3+PHA+rhIL-2
  Lactone concentration at which the blastogen response induced in CMSP falls by 50%: 0.26 µg/mL
[1]; induced by immobilised aCD3+rhIL-2
  Lactone concentration at which the blastogen response induced in CMSP falls by 50%: 0.24 µg/mL
[1]; induced by immobilised anti-CD3 (aCD3)
  Lactone concentration at which the blastogen response induced in CMSP falls by 50%: 0.06 µg/mL
[1]; induced by phytohaemaglutinin M (PHA)
  Lactone concentration at which the blastogen response induced in CMSP falls by 50%: 0.25 µg/mL
[1]; induced by rhIL-2
  Lactone concentration at which the blastogen response induced in CMSP falls by 50%: 0.26 µg/mL
[1]; no mitogen
  Lactone concentration at which the spontaneous blastogen response of the CMSP falls by 50%: 0.66 µg/mL
[2]; Lactone 0.25 μg/ml
  Proliferation of human peripheral blood mononuclear cells, Medium (cpm ± DS): 283 ± 9 cpm
  Proliferation of human peripheral blood mononuclear cells, PHA 10 μg/ml (cpm ± DS): 60428 ± 5820 cpm
  Proliferation of human peripheral blood mononuclear cells, PHA + rhIL-2 (cpm ± DS): 144693 ± 9470 cpm
[2]; Lactone 100 μg/ml
  Proliferation of human peripheral blood mononuclear cells, Medium (cpm ± DS): 47 ± 5 cpm
  Proliferation of human peripheral blood mononuclear cells, PHA 10 μg/ml (cpm ± DS): 906 ± 251 cpm
  Proliferation of human peripheral blood mononuclear cells, PHA + rhIL-2 (cpm ± DS): 341 ± 21 cpm
[2]; one year at room temperature, 40.0 mg/ml in DMSO, judged by antiproliferative activity
  Stability over time of the product dissolved in dimethylsulphoxide (DMSO): the antiproliferative biological activity of lactone is demonstrated
Murine splenocytes
  Cytotoxicity effects on murine splenocytes: Nor was are cytotoxicity effects found
